Measured values from patent US9695127B2, “Compounds for treating HIV and methods for using the compounds” (University of Pittsburgh—Of the Commonwealth System of …, priority 2012, dated 2017).

Experiments:
[1] = Preliminary pharmacokinetics in C3H mice; conditions: for T1/2: i.v., 2 mg/kg; for % F (oral bioavailability): p.o., 10 mg/kg
Protocol: Compounds were administered to male C3H mice via the i.v. and p.o. routes, and plasma concentrations were assessed by LC-MS/MS at the time points indicated. Plasma levels were determined for three mice at each time point and are shown as the mean±S.D.

[2] = system: wild-type HIV-1 NL4-3; test: HIV-1 replication in U87MG cells (p24 ELISA); format: cell-based; conditions: for REPLICATION @ 3 μM % Inhibition vs. DMSO control: U87MG cells; for inhibition at 3 µM: Human immunodeficiency virus 1, NL43, U-87 MG, 96 h, read-out: REPLICATION @ 3 μM % Inhibition vs. DMSO control
Description: In particular disclosed embodiments, the compound may be used to block Nef-dependent HIV replication and infectivity. FIG. 7 illustrates the chemical structures of the compounds identified by the Nef:Hck HTS campaign and subsequently shown to block Nef-dependent enhancement of HIV-1 replication in two different cell lines are shown, along with the IC50 values for each compound against Hck alone vs. the Nef:Hck complex. FIG. 8 illustrates results concerning HIV replication. […] Viral output for the DMSO-treated control cultures was consistently greater than 100-fold over the HIV input, typically ranging from 9,000-12,000 p24 equivalents/ml. Virus replication was assessed by p24 ELISA after 4 days (U87MG) or 9 days (CEM-T4). Data are expressed as the mean percent inhibition as compared to control cultures incubated with the carrier solvent (DMSO)±S.E.M. (n=4). Results of replication and cytotoxicity experiments with all certain hit compounds from the primary screen are shown in FIG. 3 and FIG. 4. FIG. 9 concerns infectivity assays. Compounds (3 μM) were added to cultures of the reporter cell line TZM-b1 followed by infection with either wild-type or Nef-defective (ΔNef) HIV NL4-3 in 96-well plates. After 48 hours, relative virus infectivity was assessed as luciferase production in infected cells. Results are plotted as the mean percent of HIV-1 infectivity observed in control cells incubated with the carrier solvent DMSO±S.E.M. (n=3). In the absence of Nef, infectivity is reduced by about 50% (ΔNef; dashed line shown for reference).
(§1) HIV assays: Viral stocks were prepared by transfection of 293T cells (ATCC) with wild-type and Nef-defective (ΔNef) proviral genomes (NL4—3 strain) and amplified in the T-cell line, MT2 (NIH AIDS Research and Reference Reagent Program). Viral replication was assessed in the U87MG astroglioma cell line engineered to express the HIV-1 co-receptors CD4 and CXCR4 or in the T-lymphoblast cell line, CEM-T4. Both the U87 MG and CEM-T4 cell lines support HIV-1 replication in a Nef-dependent manner, and were obtained from the NM AIDS Research and Reference Reagent Program. Compounds were solubilized in DMSO, and added to the cell culture medium 1 h prior to infection with HIV. Viral replication was monitored for either 4 days (U87MG) or 9 days (CEM-T4) by measuring p24 Gag protein levels in the culture supernatant using standard ELISA-based techniques. HIV-1 infectivity was measured using the reporter cell line, TZM-b1 (NM AIDS Research and Reference Reagent Program). Cells were grown in 96-well plates (2.5×10^4) 8 h prior to virus infection to permit adherence. Compounds were pre-incubated with wild-type HIV-1 for 4 h prior to addition to the cells in a final volume of 200 μl. After 48 h at 37° C., the cells were washed with PBS and lysed in luciferase lysis buffer (Promega) by rocking for 15 min Lysates (40 μl) were transferred to white 96-well plates and 50 μl luciferase reagent (Promega) was injected into each well. Readings were recorded with a delay time of 2 sec and an integration period of 10 sec.

[3] = system: HIV-1 NL4-3; test: HIV-1 infectivity in TZM-b1 reporter cells (luciferase); format: cell-based; conditions: Human immunodeficiency virus 1, NL43, TZM-b1, 48 h, read-out: INFECTIVITY @ 3 μM % Inhibition vs. DMSO control
Protocol: Compounds (1 μM) shown in FIG. 7 were added to cultures of U87MG and CEM-T4 cells in 96-well plates, followed by infection with wild-type HIV-1 NL4-3 (50 pg p24 equivalents/ml) 1 hour later. […] Virus replication was assessed by p24 ELISA after 4 days (U87MG) or 9 days (CEM-T4). Data are expressed as the mean percent inhibition as compared to control cultures incubated with the carrier solvent (DMSO)±S.E.M. (n=4). […] FIG. 9 concerns infectivity assays. Compounds (3 μM) were added to cultures of the reporter cell line TZM-b1 followed by infection with either wild-type or Nef-defective (ΔNef) HIV NL4-3 in 96-well plates. After 48 hours, relative virus infectivity was assessed as luciferase production in infected cells. […]
as §1, with “Both the U87 MG and CEM-T4 cell lines support HIV-1 replication in a Nef-dependent manner, and were obtained from the NM AIDS Research and Reference Reagent Program.” left out

[4] = system: cell-surface MHC-I; test: Nef-induced MHC-I downregulation in CEM-GFP cells (flow cytometry); format: cell-based; conditions: CEM-GFP cells infected with HIV-1 WT NL43, 8 days
Protocol: (§2) CEM-GFP cells were treated for 4 hrs with compounds or DMSO (control), then infected with 100 pg/ml HIV-1 WT NL43 or 500 pg/ml ΔNef-NL43.

[5] = system: cell-surface CD4; test: Nef-induced CD4 downregulation in CEM-GFP cells (flow cytometry); format: cell-based; conditions: CEM-GFP cells infected with HIV-1 WT NL43, 8 days
Protocol: as §2
Percentages on the flow diagrams (FIGS. 33A-33E) show percent of cells positive for CD4.

Compound	T1/2 [1] [h]	% F (oral bioavailability) [1] [%]	REPLICATION @ 3 μM % Inhibition vs. DMSO control [2]	inhibition at 3 µM [3] [%]	Reversal of Nef-mediated MHC-I downregulation [4]	Reversal of Nef-mediated CD4 downregulation [5]	inhibition at 3 µM [2] [%]
NC(=S)n1nc(-c2ccc([N+](=O)[O-])cc2)c(CCc2cccc(Cl)c2)c1O [JZ-1-96-2-1]	1.53	85	Toxic	59.5			
NC(=S)n1nc(-c2ccc([N+](=O)[O-])cc2)c(Cc2cccc(Cl)c2)c1O [JZ-1-97-2-1]	1.66	57		56.6	reverse Nef-mediated MHC-I downregulation to the same extent observed in cells infected with Nef-defective HIV-1	reverse Nef-mediated CD4 downregulation to the same extent observed in cells infected with Nef-defective HIV-1	51.6
NC(=S)n1nc(-c2ccc(F)cc2)c(/N=N/c2cncc(Cl)c2)c1O [JZ-1-107]				19.7			0
Oc1[nH]nc(-c2ccc(F)cc2)c1/N=N/c1cccnc1 [JZ-1-110-1]				3.3			0
Oc1[nH]nc(-c2ccc(F)cc2)c1/N=N/c1cncc(Cl)c1 [JZ-1-110-2]				0			19.3
COc1cccc(CCc2c(-c3ccc([N+](=O)[O-])cc3)nn(C(=N)N)c2O)c1 [JZ-1-135-1]				9.5			54.1
N=C(N)n1nc(-c2ccccn2)c(CCc2cccc(Cl)c2)c1O [JZ-1-135-2]			Toxic	0			
Oc1c(Cc2ccc(F)cc2)c(-c2ccc(F)cc2)nn1-c1ccccn1 [JZ-1-178]				34.7			0
NC(=S)n1nc(-c2ccc([N+](=O)[O-])cc2)c(/N=N/c2ccc(Cl)cc2)c1O [KM-1-46]				37.2			43.6
